Organism: Rattus norvegicus
Test: DrugMatrix - Regimen: Daily Repeat
Assay type: toxicity, organism-based, Sprague-Dawley
Parameters: regimen Daily Repeat, gender Male, age 6-8 weeks
Conditions: in vivo, po, route oral GAVAGE, vehicle 100 % WATER; for ABSOLUTE BASOPHIL / ABSOLUTE EOSINOPHIL / ABSOLUTE LYMPHOCYTE / ABSOLUTE MONOCYTE / ABSOLUTE SEGMENTED NEUTROPHIL / BASOPHIL / EOSINOPHIL / ERYTHROCYTE COUNT / HEMATOCRIT / HEMOGLOBIN / LEUKOCYTE COUNT / LYMPHOCYTE / MEAN CORPUSCULAR HEMOGLOBIN / MEAN CORPUSCULAR HEMOGLOBIN CONCENTRATION / MEAN CORPUSCULAR VOLUME / MONOCYTE / NEUTROPHIL / NUCLEATED RED BLOOD CELLS / PLATELET COUNT: tissue Blood; for ALANINE AMINOTRANSFERASE / ALBUMIN / ALKALINE PHOSPHATASE / ASPARTATE AMINOTRANSFERASE / BLOOD UREA NITROGEN / CARBON DIOXIDE / CHLORIDE / CHOLESTEROL / CREATINE PHOSPHOKINASE / CREATININE / GLUCOSE / LACTATE DEHYDROGENASE / LIPASE / PHOSPHORUS / POTASSIUM / SODIUM / TOTAL BILIRUBIN / TOTAL PROTEIN / URIC ACID: tissue Plasma
[1] = 20 mg/kg, 72 h, dose level Low, time 3 day
[2] = 20 mg/kg, 120 h, dose level Low, time 5 day
[3] = 688 mg/kg, 72 h, dose level High, time 3 day
[4] = 688 mg/kg, 120 h, dose level High, time 5 day

Compound: COc1ccc(CN(CCN(C)C)c2ccccn2)cc1 [PYRILAMINE]
- ABSOLUTE BASOPHIL [1]: 0 CELLS/uL
- ABSOLUTE EOSINOPHIL [1]: 0 CELLS/uL
- ABSOLUTE LYMPHOCYTE [1]: 6764.67 CELLS/uL
- ABSOLUTE MONOCYTE [1]: 0 CELLS/uL
- ABSOLUTE SEGMENTED NEUTROPHIL [1]: 435.33 CELLS/uL
- BASOPHIL [1]: 0%
- EOSINOPHIL [1]: 0%
- ERYTHROCYTE COUNT [1]: 5.22 x10E6/uL
- HEMATOCRIT [1]: 33.7%
- HEMOGLOBIN [1]: 13.67 G/DL
- LEUKOCYTE COUNT [1]: 7.2 x10E3/uL
- LYMPHOCYTE [1]: 93.67%
- MEAN CORPUSCULAR HEMOGLOBIN [1]: 26.2 pg
- MEAN CORPUSCULAR HEMOGLOBIN CONCENTRATION [1]: 40.57 G/DL
- MEAN CORPUSCULAR VOLUME [1]: 64.53 fL
- MONOCYTE [1]: 0%
- NEUTROPHIL [1]: 6.33%
- NUCLEATED RED BLOOD CELLS [1]: 0 /100WBC
- PLATELET COUNT [1]: 1037.67 x10E3/uL
- ALANINE AMINOTRANSFERASE [1]: 45.67 u/L
- ALBUMIN [1]: 4.37 G/DL
- ALKALINE PHOSPHATASE [1]: 340.33 u/L
- ASPARTATE AMINOTRANSFERASE [1]: 91.33 u/L
- BLOOD UREA NITROGEN [1]: 16.67 mg/dL
- CARBON DIOXIDE [1]: 33.67 mmol/L
- CHLORIDE [1]: 98.33 MEQ/L
- CHOLESTEROL [1]: 83 mg/dL
- CREATINE PHOSPHOKINASE [1]: 408.33 u/L
- CREATININE [1]: 0.23 mg/dL
- GLUCOSE [1]: 112.67 mg/dL
- LACTATE DEHYDROGENASE [1]: 148.67 u/L
- LIPASE [1]: 10.33 u/L
- PHOSPHORUS [1]: 11.07 mg/dL
- POTASSIUM [1]: 6.81 MEQ/L
- SODIUM [1]: 145.13 MEQ/L
- TOTAL BILIRUBIN [1]: 0.2 mg/dL
- TOTAL PROTEIN [1]: 6.37 G/DL
- URIC ACID [1]: 0.83 mg/dL
- ABSOLUTE BASOPHIL [2]: 0 CELLS/uL
- ABSOLUTE EOSINOPHIL [2]: 0 CELLS/uL
- ABSOLUTE LYMPHOCYTE [2]: 14373.33 CELLS/uL
- ABSOLUTE MONOCYTE [2]: 89.33 CELLS/uL
- ABSOLUTE SEGMENTED NEUTROPHIL [2]: 1937.33 CELLS/uL
- BASOPHIL [2]: 0%
- EOSINOPHIL [2]: 0%
- ERYTHROCYTE COUNT [2]: 5.38 x10E6/uL
- HEMATOCRIT [2]: 33.67%
- HEMOGLOBIN [2]: 13.67 G/DL
- LEUKOCYTE COUNT [2]: 16.4 x10E3/uL
- LYMPHOCYTE [2]: 88.33%
- MEAN CORPUSCULAR HEMOGLOBIN [2]: 25.47 pg
- MEAN CORPUSCULAR HEMOGLOBIN CONCENTRATION [2]: 40.63 G/DL
- MEAN CORPUSCULAR VOLUME [2]: 62.73 fL
- MONOCYTE [2]: 0.67%
- NEUTROPHIL [2]: 11%
- NUCLEATED RED BLOOD CELLS [2]: 0 /100WBC
- PLATELET COUNT [2]: 1183.67 x10E3/uL
- ALANINE AMINOTRANSFERASE [2]: 53.33 u/L
- ALBUMIN [2]: 4.13 G/DL
- ALKALINE PHOSPHATASE [2]: 437.33 u/L
- ASPARTATE AMINOTRANSFERASE [2]: 80.67 u/L
- BLOOD UREA NITROGEN [2]: 17 mg/dL
- CARBON DIOXIDE [2]: 28.67 mmol/L
- CHLORIDE [2]: 104.67 MEQ/L
- CHOLESTEROL [2]: 64.33 mg/dL
- CREATINE PHOSPHOKINASE [2]: 242 u/L
- CREATININE [2]: 0.17 mg/dL
- GLUCOSE [2]: 160 mg/dL
- LACTATE DEHYDROGENASE [2]: 86.33 u/L
- LIPASE [2]: 8.67 u/L
- PHOSPHORUS [2]: 14.2 mg/dL
- POTASSIUM [2]: 6.63 MEQ/L
- SODIUM [2]: 147.07 MEQ/L
- TOTAL BILIRUBIN [2]: 0.17 mg/dL
- TOTAL PROTEIN [2]: 6 G/DL
- URIC ACID [2]: 1.7 mg/dL
- ABSOLUTE BASOPHIL [3]: 0 CELLS/uL
- ABSOLUTE EOSINOPHIL [3]: 0 CELLS/uL
- ABSOLUTE LYMPHOCYTE [3]: 13165.67 CELLS/uL
- ABSOLUTE MONOCYTE [3]: 0 CELLS/uL
- ABSOLUTE SEGMENTED NEUTROPHIL [3]: 1201 CELLS/uL
- BASOPHIL [3]: 0%
- EOSINOPHIL [3]: 0%
- ERYTHROCYTE COUNT [3]: 5.73 x10E6/uL
- HEMATOCRIT [3]: 34.93%
- HEMOGLOBIN [3]: 14.1 G/DL
- LEUKOCYTE COUNT [3]: 14.37 x10E3/uL
- LYMPHOCYTE [3]: 91.67%
- MEAN CORPUSCULAR HEMOGLOBIN [3]: 24.63 pg
- MEAN CORPUSCULAR HEMOGLOBIN CONCENTRATION [3]: 40.37 G/DL
- MEAN CORPUSCULAR VOLUME [3]: 61.07 fL
- MONOCYTE [3]: 0%
- NEUTROPHIL [3]: 8.33%
- NUCLEATED RED BLOOD CELLS [3]: 0 /100WBC
- PLATELET COUNT [3]: 1288.33 x10E3/uL
- ALANINE AMINOTRANSFERASE [3]: 50.67 u/L
- ALBUMIN [3]: 4.27 G/DL
- ALKALINE PHOSPHATASE [3]: 466 u/L
- ASPARTATE AMINOTRANSFERASE [3]: 87.67 u/L
- BLOOD UREA NITROGEN [3]: 12.33 mg/dL
- CARBON DIOXIDE [3]: 34 mmol/L
- CHLORIDE [3]: 100.67 MEQ/L
- CHOLESTEROL [3]: 65.67 mg/dL
- CREATINE PHOSPHOKINASE [3]: 183.33 u/L
- CREATININE [3]: 0.13 mg/dL
- GLUCOSE [3]: 155.33 mg/dL
- LACTATE DEHYDROGENASE [3]: 142 u/L
- LIPASE [3]: 9 u/L
- PHOSPHORUS [3]: 13.33 mg/dL
- POTASSIUM [3]: 6.65 MEQ/L
- SODIUM [3]: 145.23 MEQ/L
- TOTAL BILIRUBIN [3]: 0.1 mg/dL
- TOTAL PROTEIN [3]: 5.8 G/DL
- URIC ACID [3]: 1.7 mg/dL
- ABSOLUTE BASOPHIL [4]: 0 CELLS/uL
- ABSOLUTE EOSINOPHIL [4]: 82 CELLS/uL
- ABSOLUTE LYMPHOCYTE [4]: 13712.5 CELLS/uL
- ABSOLUTE MONOCYTE [4]: 237 CELLS/uL
- ABSOLUTE SEGMENTED NEUTROPHIL [4]: 1918.5 CELLS/uL
- BASOPHIL [4]: 0%
- EOSINOPHIL [4]: 0.5%
- ERYTHROCYTE COUNT [4]: 6.11 x10E6/uL
- HEMATOCRIT [4]: 37.55%
- HEMOGLOBIN [4]: 14.85 G/DL
- LEUKOCYTE COUNT [4]: 15.95 x10E3/uL
- LYMPHOCYTE [4]: 86%
- MEAN CORPUSCULAR HEMOGLOBIN [4]: 24.3 pg
- MEAN CORPUSCULAR HEMOGLOBIN CONCENTRATION [4]: 39.6 G/DL
- MEAN CORPUSCULAR VOLUME [4]: 61.35 fL
- MONOCYTE [4]: 1.5%
- NEUTROPHIL [4]: 12%
- NUCLEATED RED BLOOD CELLS [4]: 0 /100WBC
- PLATELET COUNT [4]: 1201.5 x10E3/uL
- ALANINE AMINOTRANSFERASE [4]: 60.5 u/L
- ALBUMIN [4]: 4.45 G/DL
- ALKALINE PHOSPHATASE [4]: 346.5 u/L
- ASPARTATE AMINOTRANSFERASE [4]: 96 u/L
- BLOOD UREA NITROGEN [4]: 14.5 mg/dL
- CARBON DIOXIDE [4]: 35.5 mmol/L
- CHLORIDE [4]: 99 MEQ/L
- CHOLESTEROL [4]: 60 mg/dL
- CREATINE PHOSPHOKINASE [4]: 292 u/L
- CREATININE [4]: 0.24 mg/dL
- GLUCOSE [4]: 142 mg/dL
- LACTATE DEHYDROGENASE [4]: 333.5 u/L
- LIPASE [4]: 11 u/L
- PHOSPHORUS [4]: 13.2 mg/dL
- POTASSIUM [4]: 6.7 MEQ/L
- SODIUM [4]: 146.5 MEQ/L
- TOTAL BILIRUBIN [4]: 0.15 mg/dL
- TOTAL PROTEIN [4]: 6 G/DL
- URIC ACID [4]: 2 mg/dL

Source: ChEMBL document CHEMBL3885881, “DrugMatrix”
